The values that follow come from BindingDB's records for doi:10.1016/j.bmcl.2012.10.084 (Takeda Pharmaceutical, 2012).

This assay deals with Mitogen-activated protein kinase kinase kinase 7 (TAK1) (Homo sapiens) (UniProt O43318). As to the kind of experiment: Inhibition of TAK1.
Chain of Mitogen-activated protein kinase kinase kinase 7 (TAK1) (Homo sapiens) (O43318 whole entry, looked up): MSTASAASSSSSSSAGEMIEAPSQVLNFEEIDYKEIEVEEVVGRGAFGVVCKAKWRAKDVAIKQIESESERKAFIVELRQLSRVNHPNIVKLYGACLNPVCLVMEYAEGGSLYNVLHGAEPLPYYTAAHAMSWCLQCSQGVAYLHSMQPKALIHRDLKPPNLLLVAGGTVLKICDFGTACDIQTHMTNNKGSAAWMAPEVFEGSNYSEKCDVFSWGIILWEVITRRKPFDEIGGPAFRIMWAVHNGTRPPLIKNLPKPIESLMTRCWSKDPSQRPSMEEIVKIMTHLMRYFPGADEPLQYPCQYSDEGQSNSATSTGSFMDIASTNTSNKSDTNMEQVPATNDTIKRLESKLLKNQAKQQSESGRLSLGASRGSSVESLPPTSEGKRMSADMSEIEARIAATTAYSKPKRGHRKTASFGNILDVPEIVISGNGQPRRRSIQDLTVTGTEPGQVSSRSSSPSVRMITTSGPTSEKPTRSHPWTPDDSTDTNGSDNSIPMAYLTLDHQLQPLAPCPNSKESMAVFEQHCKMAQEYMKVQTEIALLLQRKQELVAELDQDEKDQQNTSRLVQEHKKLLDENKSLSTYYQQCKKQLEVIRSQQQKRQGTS

As a reminder, the IC50 is the concentration at which inhibition is half-maximal. On to `CC(C)(C)c1ccc(C(=O)Nc2cn3cc(-n4ccnc4)ccc3n2)cc1`, for which the IC50 was > 10 µM.
